Calls of active or inactive are those of the source. The rule behind the calls is not given here.
System: CCRIS mutagenicity, Ames/micronucleus/aberration tests
Assay: CCRIS mutagenicity studies
[1] = Test System: AMES SALMONELLA TYPHIMURIUM, Strain/Indicator: TA98, Metabolic Activation: NONE, Method: PREINCUBATION
[2] = Test System: AMES SALMONELLA TYPHIMURIUM, Strain/Indicator: TA100, Metabolic Activation: NONE, Method: PREINCUBATION
[3] = Test System: AMES SALMONELLA TYPHIMURIUM, Strain/Indicator: TA1535, Metabolic Activation: NONE, Method: PREINCUBATION
[4] = Test System: AMES SALMONELLA TYPHIMURIUM, Strain/Indicator: TA1537, Metabolic Activation: NONE, Method: PREINCUBATION

SMILES: CC(=O)OCc1ccco1
- mutagenic call (Test System: AMES SALMONELLA TYPHIMURIUM, Strain/Indicator: TA98, Metabolic Activation: HAMSTER, LIVER, S-9, AROCLOR 1254 (10%), Method: PREINCUBATION): inactive; negative
- mutagenic call [1]: inactive; negative
- mutagenic call (Test System: AMES SALMONELLA TYPHIMURIUM, Strain/Indicator: TA98, Metabolic Activation: RAT, LIVER, S-9, AROCLOR 1254 (10%), Method: PREINCUBATION): active; positive
- mutagenic call (Test System: AMES SALMONELLA TYPHIMURIUM, Strain/Indicator: TA100, Metabolic Activation: HAMSTER, LIVER, AROCLOR 1254 (10%), Method: PREINCUBATION): inactive; negative
- mutagenic call [2]: active; positive
- mutagenic call (Test System: AMES SALMONELLA TYPHIMURIUM, Strain/Indicator: TA100, Metabolic Activation: RAT, LIVER, S-9, AROCLOR 1254 (10%), Method: PREINCUBATION): active; positive
- mutagenic call (Test System: AMES SALMONELLA TYPHIMURIUM, Strain/Indicator: TA1535, Metabolic Activation: HAMSTER, LIVER, S-9, AROCLOR 1254 (10%), Method: PREINCUBATION): inactive; negative
- mutagenic call [3]: inactive; negative
- mutagenic call (Test System: AMES SALMONELLA TYPHIMURIUM, Strain/Indicator: TA1535, Metabolic Activation: RAT, LIVER, S-9, AROCLOR 1254 (10%), Method: PREINCUBATION): inactive; negative
- mutagenic call (Test System: AMES SALMONELLA TYPHIMURIUM, Strain/Indicator: TA1537, Metabolic Activation: HAMSTER, LIVER, S-9, AROCLOR 1254 (10%), Method: PREINCUBATION): inactive; negative
- mutagenic call [4]: inactive; negative
- mutagenic call (Test System: AMES SALMONELLA TYPHIMURIUM, Strain/Indicator: TA1537, Metabolic Activation: RAT, LIVER, S-9, AROCLOR 1254 (10%), Method: PREINCUBATION): inactive; negative

SMILES: [N-]=[N+]=NCCO
- mutagenic call (Test System: AMES SALMONELLA TYPHIMURIUM, Strain/Indicator: TA1535, Metabolic Activation: NONE, Method: STANDARD PLATE): active; positive

SMILES: Nc1ccc2nc3ccccn3c2n1
- mutagenic call (Test System: AMES SALMONELLA TYPHIMURIUM, Strain/Indicator: TA97, Metabolic Activation: NONE, Method: STANDARD PLATE): inactive; negative
- mutagenic call (Test System: AMES SALMONELLA TYPHIMURIUM, Strain/Indicator: TA97, Metabolic Activation: RAT, LIVER, S-9, AROCLOR 1254, Method: STANDARD PLATE): active; positive
- mutagenic call (Test System: AMES SALMONELLA TYPHIMURIUM, Strain/Indicator: TA98, Metabolic Activation: MONKEY, LIVER, S-9, Method: PREINCUBATION): active; positive
- mutagenic call (Test System: AMES SALMONELLA TYPHIMURIUM, Strain/Indicator: TA98, Metabolic Activation: MOUSE, LIVER, MICROSOMES, TCDD, Method: STANDARD PLATE): active; positive
- mutagenic call (Test System: AMES SALMONELLA TYPHIMURIUM, Strain/Indicator: TA98, Metabolic Activation: MOUSE, LIVER, MICROSOMES, Method: STANDARD PLATE): inactive; negative
- mutagenic call (Test System: AMES SALMONELLA TYPHIMURIUM, Strain/Indicator: TA98, Metabolic Activation: NONE, Method: STANDARD PLATE): inactive; negative
- mutagenic call (Test System: AMES SALMONELLA TYPHIMURIUM, Strain/Indicator: TA98, Metabolic Activation: RAT, LIVER, CYTOSOL, AROCLOR 1254, Method: STANDARD PLATE): inactive; negative
- mutagenic call (Test System: AMES SALMONELLA TYPHIMURIUM, Strain/Indicator: TA98, Metabolic Activation: RAT, LIVER, MICROSOMES, AROCLOR 1254, Method: STANDARD PLATE): inactive; negative
- mutagenic call (Test System: AMES SALMONELLA TYPHIMURIUM, Strain/Indicator: TA98, Metabolic Activation: RAT, LIVER, S-9, AROCLOR 1254, Method: PREINCUBATION): active; positive
- mutagenic call (Test System: AMES SALMONELLA TYPHIMURIUM, Strain/Indicator: TA98, Metabolic Activation: RAT, LIVER, S-9, AROCLOR 1254, Method: STANDARD PLATE): active; positive
- mutagenic call (Test System: AMES SALMONELLA TYPHIMURIUM, Strain/Indicator: TA100, Metabolic Activation: NONE, Method: STANDARD PLATE): inactive; negative
- mutagenic call (Test System: AMES SALMONELLA TYPHIMURIUM, Strain/Indicator: TA100, Metabolic Activation: RAT, LIVER, S-9, AROCLOR 1254, Method: PREINCUBATION): active; positive
- mutagenic call (Test System: AMES SALMONELLA TYPHIMURIUM, Strain/Indicator: TA100, Metabolic Activation: RAT, LIVER, S-9, AROCLOR 1254, Method: STANDARD PLATE): active; positive
- mutagenic call (Test System: AMES SALMONELLA TYPHIMURIUM, Strain/Indicator: TA100, Metabolic Activation: RAT, LIVER, S-9, N-BENZYLIMIDAZOLE, Method: PREINCUBATION): active; positive
- mutagenic call (Test System: AMES SALMONELLA TYPHIMURIUM, Strain/Indicator: YG1019, Metabolic Activation: RAT LIVER S-9, AROCLOR, Method: PREINCUBATION): active; positive

SMILES: CCOCn1cc(F)c(=O)n(C(=O)c2cccc(C(=O)Oc3nc(OC(=O)c4ccccc4)ccc3C#N)c2)c1=O
- mutagenic call [1]: inactive; negative
- mutagenic call (Test System: AMES SALMONELLA TYPHIMURIUM, Strain/Indicator: TA98, Metabolic Activation: S-9, Method: PREINCUBATION): inactive; negative
- mutagenic call [2]: inactive; negative
- mutagenic call (Test System: AMES SALMONELLA TYPHIMURIUM, Strain/Indicator: TA100, Metabolic Activation: S-9, Method: PREINCUBATION): inactive; negative
- mutagenic call [3]: inactive; negative
- mutagenic call (Test System: AMES SALMONELLA TYPHIMURIUM, Strain/Indicator: TA1535, Metabolic Activation: S-9, Method: PREINCUBATION): inactive; negative
- mutagenic call [4]: inactive; negative
- mutagenic call (Test System: AMES SALMONELLA TYPHIMURIUM, Strain/Indicator: TA1537, Metabolic Activation: S-9, Method: PREINCUBATION): inactive; negative
- mutagenic call (Test System: E. COLI, Strain/Indicator: WP2 UVRA, Metabolic Activation: NONE, Method: PREINCUBATION): inactive; negative
- mutagenic call (Test System: E. COLI, Strain/Indicator: WP2 UVRA, Metabolic Activation: S-9, Method: PREINCUBATION): inactive; negative

Reference: PubChem BioAssay AID1259407 (Chemical Carcinogenesis Research Information System (CCRIS), 2018)
